# Entries after “also recorded” stand apart in the source; their conditions may differ.
# What was measured:
# [1] = Metabolic stability in human liver microsomes (HLMs); conditions: for remaining at 2 h: human, human liver microsomes; for Metabolic Pathway: metabolites after 120 min incubation with HLMs
# [2] = tested on: MES-induced seizures in mice; assay: Maximal electroshock seizure (MES) test; assay type: in vivo; conditions: for protection in MES screening / responders at 100 mg/kg: 100 mg/kg i.p., 0.5 h; for protection in MES screening: four mice; for responders at 100 mg/kg / ED50: Mus musculus, ip; for responders at 100 mg/kg: read-out: MES screening: number of mice protected/number of mice tested (converted); for ED50: mice, pretreatment time 0.5 h, (95% confidence limits)
# In short: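 Adult male Albino Swiss mice (22–26 g), compounds suspended in 1% aqueous Tween 80, single i.p. injection, tested 0.5 h post-dose. Screening at 100 mg/kg with four mice per group; ED50 from 3–4 groups of eight. PI = TD50 (chimney test) / ED50.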
# [3] = tested on: scPTZ-induced seizures in mice; assay: Subcutaneous pentylenetetrazole (scPTZ) seizure test; assay type: in vivo; conditions: 100 mg/kg i.p., 0.5 h; for protection in scPTZ screening: four mice
# In short: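 Adult male Albino Swiss mice (22-26 g) received compounds suspended in 1% aqueous Tween 80, single i.p. injection at 10 mL/kg. ED50 from 3–4 dose groups of eight mice; protective index computed as TD50 (chimney or rotarod) divided by ED50.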
# [4] = tested on: ivPTZ seizure threshold in mice; assay: Timed ivPTZ seizure threshold test; assay type: in vivo; conditions: 50 mg/kg i.p., 0.5 h before test; for increase of threshold for generalized clonus with loss of righting reflex / increase of threshold for the first myoclonic twitch: vs control
# Procedure: In studies assessing the acute effect of compounds 53 and 60 on the ivPTZ seizure threshold and neuromuscular strength, compounds 53 and 60 was suspended in a 1% solution of Tween 80 and administered i.p., at a dose of 10 mL/kg body weight. Each experimental group consisted of 9–12 animals (ivPTZ seizure threshold test) or 9−10 animals (grip strength test). The timed ivPTZ test was employed to evaluate the acute effect of compounds 53 and 60 on the seizure thresholds for (1) the first myoclonic twitch, (2) generalized clonic seizure with loss of righting reflex, and (3) forelimb tonus. The experimental procedure of the timed ivPTZ test was described in detail elsewhere. The acute effect of compounds 53 and 60 on neuromuscular strength was quantified using the grip-strength apparatus (BIOSEB, Chaville, France) according to the method that is described elsewhere. The results are depicted in Figure 2 (ivPTZ seizure threshold test, see Section 3 Results and Discussion) and Figure 3 (grip strength test, see Section 3 Results and Discussion).
# The timed ivPTZ test was employed to further evaluate the effects of compounds 53 and 60 on seizure susceptibility in mice. The ivPTZ seizure test is an extremely sensitive method for assessing seizure thresholds in rodents. In this method, the threshold PTZ dose for several seizure endpoints was determined.
# Figure 2 Acute effects of 53 and 60 on the threshold for the first myoclonic twitch (A), generalized clonus (B), and forelimb tonus (C) in the ivPTZ seizure threshold test in mice. Compounds 53 and 60 were administered i.p. 0.5 h before the seizure test. Control animals received vehicle only. Each experimental group consisted of 9–12 animals. Each bar represents the mean (mg/kg PTZ) + SEM. ** p < 0.01, *** p < 0.001, **** p < 0.0001 vs. the control group (Student’s t-test).
# [5] = biological target: T1, Calcium Cav1.2 channels (dihydropyridine site) (Homo sapiens, UniProt Q13936); assay: Calcium Cav1.2 channel binding (dihydropyridine site, antagonist radioligand); conditions: 10 µM; human recombinant HEK-293 cell; read-out: % Inhibition of Control Specific Binding, Cav1.2 (dihydropyridine site)
# T1 construct: host or cells: HEK-293
# T1 sequence (Q13936 whole entry): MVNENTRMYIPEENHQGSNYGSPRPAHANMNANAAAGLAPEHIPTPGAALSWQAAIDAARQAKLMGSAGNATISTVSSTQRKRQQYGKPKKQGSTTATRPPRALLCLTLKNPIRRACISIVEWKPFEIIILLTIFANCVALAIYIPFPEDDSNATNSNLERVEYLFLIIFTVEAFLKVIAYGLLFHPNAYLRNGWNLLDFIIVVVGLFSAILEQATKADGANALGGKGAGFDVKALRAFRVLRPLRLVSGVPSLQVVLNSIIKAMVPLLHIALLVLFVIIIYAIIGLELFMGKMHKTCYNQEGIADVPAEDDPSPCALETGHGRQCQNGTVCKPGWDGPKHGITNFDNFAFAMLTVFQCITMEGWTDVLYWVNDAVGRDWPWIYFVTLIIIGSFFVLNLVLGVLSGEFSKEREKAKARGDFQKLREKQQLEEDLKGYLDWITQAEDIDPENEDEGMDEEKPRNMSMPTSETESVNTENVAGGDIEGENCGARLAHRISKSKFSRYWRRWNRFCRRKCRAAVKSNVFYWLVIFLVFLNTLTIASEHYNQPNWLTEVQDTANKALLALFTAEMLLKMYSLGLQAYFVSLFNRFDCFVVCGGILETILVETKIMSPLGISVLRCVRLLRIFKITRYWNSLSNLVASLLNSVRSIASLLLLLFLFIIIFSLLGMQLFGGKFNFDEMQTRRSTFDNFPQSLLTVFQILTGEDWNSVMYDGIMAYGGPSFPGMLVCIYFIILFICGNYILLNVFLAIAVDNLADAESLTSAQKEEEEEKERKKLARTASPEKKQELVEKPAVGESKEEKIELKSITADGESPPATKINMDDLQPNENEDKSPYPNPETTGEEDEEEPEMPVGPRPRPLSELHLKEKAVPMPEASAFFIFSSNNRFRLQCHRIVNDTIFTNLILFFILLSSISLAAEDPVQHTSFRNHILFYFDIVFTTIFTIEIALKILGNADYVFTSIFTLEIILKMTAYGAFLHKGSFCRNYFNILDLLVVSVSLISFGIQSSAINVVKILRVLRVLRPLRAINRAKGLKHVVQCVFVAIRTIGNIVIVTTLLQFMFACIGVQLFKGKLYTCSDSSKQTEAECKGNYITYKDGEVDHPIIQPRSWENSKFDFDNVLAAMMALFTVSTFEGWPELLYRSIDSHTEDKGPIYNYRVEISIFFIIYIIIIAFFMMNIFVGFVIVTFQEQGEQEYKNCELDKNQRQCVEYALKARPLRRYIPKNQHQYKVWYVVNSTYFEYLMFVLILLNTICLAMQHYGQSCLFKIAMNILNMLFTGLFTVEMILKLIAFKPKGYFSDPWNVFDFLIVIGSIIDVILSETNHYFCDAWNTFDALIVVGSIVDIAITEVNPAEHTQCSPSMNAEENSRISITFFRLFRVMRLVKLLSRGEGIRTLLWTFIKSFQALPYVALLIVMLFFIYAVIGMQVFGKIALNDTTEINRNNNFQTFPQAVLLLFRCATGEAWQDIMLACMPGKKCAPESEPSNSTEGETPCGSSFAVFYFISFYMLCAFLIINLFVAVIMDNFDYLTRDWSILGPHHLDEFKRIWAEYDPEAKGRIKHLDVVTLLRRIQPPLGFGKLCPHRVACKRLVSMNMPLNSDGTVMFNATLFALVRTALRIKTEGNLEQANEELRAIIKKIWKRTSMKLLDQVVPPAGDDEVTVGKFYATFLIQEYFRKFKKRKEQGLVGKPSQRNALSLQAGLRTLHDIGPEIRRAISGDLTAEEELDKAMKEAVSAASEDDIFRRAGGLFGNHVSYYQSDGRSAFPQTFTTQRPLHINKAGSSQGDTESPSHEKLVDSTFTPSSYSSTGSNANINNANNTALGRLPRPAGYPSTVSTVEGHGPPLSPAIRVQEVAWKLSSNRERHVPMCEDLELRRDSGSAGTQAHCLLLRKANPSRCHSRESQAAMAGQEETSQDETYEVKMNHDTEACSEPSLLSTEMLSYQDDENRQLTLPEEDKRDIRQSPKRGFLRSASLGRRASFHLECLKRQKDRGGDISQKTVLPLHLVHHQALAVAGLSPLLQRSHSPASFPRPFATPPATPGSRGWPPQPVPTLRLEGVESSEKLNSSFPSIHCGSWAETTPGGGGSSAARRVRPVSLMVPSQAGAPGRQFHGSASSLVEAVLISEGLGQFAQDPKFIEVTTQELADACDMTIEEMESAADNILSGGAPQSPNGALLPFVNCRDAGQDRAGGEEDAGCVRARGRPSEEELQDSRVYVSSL
# T1 sequence (Q08289 whole entry partner): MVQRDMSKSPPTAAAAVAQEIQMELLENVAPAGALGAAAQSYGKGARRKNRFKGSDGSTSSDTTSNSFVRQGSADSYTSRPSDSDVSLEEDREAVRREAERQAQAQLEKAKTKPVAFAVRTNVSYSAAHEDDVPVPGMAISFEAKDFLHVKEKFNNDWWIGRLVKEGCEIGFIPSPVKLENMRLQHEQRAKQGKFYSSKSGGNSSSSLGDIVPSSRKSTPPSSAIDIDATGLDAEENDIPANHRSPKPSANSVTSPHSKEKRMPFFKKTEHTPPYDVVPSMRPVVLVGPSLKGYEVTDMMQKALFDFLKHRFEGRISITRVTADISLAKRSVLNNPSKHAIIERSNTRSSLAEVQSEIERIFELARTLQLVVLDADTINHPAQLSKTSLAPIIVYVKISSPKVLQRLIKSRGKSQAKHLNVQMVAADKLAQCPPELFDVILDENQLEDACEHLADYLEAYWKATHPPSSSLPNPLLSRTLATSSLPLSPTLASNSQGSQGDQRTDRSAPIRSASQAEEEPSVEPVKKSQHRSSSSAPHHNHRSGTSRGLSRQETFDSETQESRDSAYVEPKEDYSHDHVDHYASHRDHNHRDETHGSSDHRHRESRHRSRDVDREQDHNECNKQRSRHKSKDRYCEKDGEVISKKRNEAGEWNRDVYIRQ
# T1 sequence (P54289 25-956 partner limits assumed): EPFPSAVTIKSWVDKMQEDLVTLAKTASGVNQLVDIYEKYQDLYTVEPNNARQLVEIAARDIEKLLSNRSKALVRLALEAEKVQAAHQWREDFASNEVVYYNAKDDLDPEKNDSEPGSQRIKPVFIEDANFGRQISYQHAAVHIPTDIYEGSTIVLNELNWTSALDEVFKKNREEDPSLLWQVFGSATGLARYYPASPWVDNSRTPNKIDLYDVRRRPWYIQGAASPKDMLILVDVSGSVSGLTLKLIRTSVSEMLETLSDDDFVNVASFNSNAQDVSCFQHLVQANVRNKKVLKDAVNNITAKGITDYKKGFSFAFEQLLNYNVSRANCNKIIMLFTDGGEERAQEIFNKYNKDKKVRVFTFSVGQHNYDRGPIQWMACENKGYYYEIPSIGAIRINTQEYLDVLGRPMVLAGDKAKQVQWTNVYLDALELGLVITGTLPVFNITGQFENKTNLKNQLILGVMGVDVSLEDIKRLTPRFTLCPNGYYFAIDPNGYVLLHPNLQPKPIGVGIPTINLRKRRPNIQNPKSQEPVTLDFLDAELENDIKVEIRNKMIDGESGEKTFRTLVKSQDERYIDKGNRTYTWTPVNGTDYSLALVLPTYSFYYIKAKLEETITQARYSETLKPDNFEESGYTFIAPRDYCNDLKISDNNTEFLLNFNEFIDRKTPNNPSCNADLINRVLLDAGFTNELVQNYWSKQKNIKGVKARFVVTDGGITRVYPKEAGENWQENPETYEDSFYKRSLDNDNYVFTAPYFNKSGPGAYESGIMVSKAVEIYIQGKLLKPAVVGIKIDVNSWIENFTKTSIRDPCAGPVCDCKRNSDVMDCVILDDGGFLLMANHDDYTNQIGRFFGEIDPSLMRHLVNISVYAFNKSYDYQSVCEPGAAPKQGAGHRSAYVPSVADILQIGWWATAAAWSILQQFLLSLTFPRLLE
# T1 sequence (P54289 957-1103 partner limits assumed): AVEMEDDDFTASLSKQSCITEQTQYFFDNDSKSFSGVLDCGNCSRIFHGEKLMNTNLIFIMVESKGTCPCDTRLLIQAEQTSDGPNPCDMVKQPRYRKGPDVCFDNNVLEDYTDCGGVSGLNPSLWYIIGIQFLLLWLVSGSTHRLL
# Na+ channel (site 2) = Na+ channel (site 2) radioligand binding; conditions: rat cerebral cortex
# recombinant human CYP2C9 = biological target: T2, recombinant human CYP2C9 (Homo sapiens, UniProt P11712); assay: CYP2C9 P450-Glo luminescent assay; assay type: in vitro ADME
# T2 construct: purchased Promega (Madison, WI, USA)
# T2 sequence (P11712 whole entry): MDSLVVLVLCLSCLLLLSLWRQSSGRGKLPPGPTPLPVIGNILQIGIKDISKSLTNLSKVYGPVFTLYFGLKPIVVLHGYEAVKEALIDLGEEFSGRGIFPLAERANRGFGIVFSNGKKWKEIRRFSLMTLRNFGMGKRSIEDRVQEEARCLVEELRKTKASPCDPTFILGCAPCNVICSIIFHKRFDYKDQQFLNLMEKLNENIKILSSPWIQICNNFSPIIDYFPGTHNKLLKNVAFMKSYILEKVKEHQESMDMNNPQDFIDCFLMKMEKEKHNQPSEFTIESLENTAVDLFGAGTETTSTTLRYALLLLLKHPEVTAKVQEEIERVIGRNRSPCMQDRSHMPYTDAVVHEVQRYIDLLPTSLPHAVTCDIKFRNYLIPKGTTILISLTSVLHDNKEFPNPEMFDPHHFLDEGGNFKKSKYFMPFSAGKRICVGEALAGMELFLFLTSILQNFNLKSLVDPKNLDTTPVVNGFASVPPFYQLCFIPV
# Procedure: The risk of potential DDIs was predicted with use of luminescent CYP3A4, 2D6, and 2C9 P450-Glo assays (Figure 6). […] However, such an effect was also observed in our previous studies for other pyrrolidine-2,5-dione derivatives. […] However, the potential risk of DDI of 60 was still assessed as very low, and was compared to the selective CYP2C9 inhibitor sulfaphenazole (Figure 6C).
# The data were analyzed with one-way ANOVA, followed by Bonferroni’s Multiple Comparison Post Test (Graph Pad Prism 8.0.1 software, San Diego, CA, USA)): * p < 0.05, ** p < 0.01, *** p < 0.001 **** p < 0.0001. The compounds were examined in triplicate.
remaining at 2 h [1],melting point,"% Inhibition of Control Specific Binding, Na+ channel (site 2) (Na+ channel (site 2); 10 µM)","% Inhibition of Control Specific Binding, Na+ channel (site 2) (Na+ channel (site 2); 100 µM)",Compound,Metabolic Pathway [1],protection in MES screening [2],responders at 100 mg/kg [2],ED50 [2],scPTZ screening: number of mice protected/number of mice tested [3],protection in scPTZ screening [3],effect on threshold for forelimb tonus [4],increase of threshold for generalized clonus with loss of righting reflex [4],increase of threshold for the first myoclonic twitch [4],inhibition at 10 µM [5],influence on CYP2C9 activity (recombinant human CYP2C9)
95.6%,131.8 to 132.5 °C,17.4%,75.5%,"CC(=O)NC(C(=O)N1CCN(c2cccc(C(F)(F)F)c2)CC1)c1ccccc1 (stereo not shown) [Compound 53, N-(2-oxo-1-phenyl-2-(4-(3-(trifluoromethyl)phenyl)piperazin-1-yl)ethyl)acetamide]",hydroxylation,75%,75%,89.7 mg/kg,1/4,25%,"did not, however, produce any significant effect",~ 40%,~ 50%,4%,weak inhibition effect
88.8%,–,37.0 (10) %,–,"CC(=O)NC(C(=O)N1CCN(c2cccc(OC(F)(F)F)c2)CC1)c1ccccc1 (stereo not shown) [Compound 60, N-(2-oxo-1-phenyl-2-(4-(3-(trifluoromethoxy)phenyl)piperazin-1-yl)ethyl)acetamide]",hydroxylation; also recorded: dehydrogenation,75%,75%,73.6 mg/kg,1/4,25%,devoid of any significant effects,devoid of any significant effects,~ 20%,7%,"a little stronger influence, observed also at 10 µM"

# Reference: article PMC9221546, “New Phenylglycinamide Derivatives with Hybrid Structure as Candidates for New Broad-Spectrum Anticonvulsants” (Cells, 2022)
